This data set can be described thus: Human HepG2 cell viability assay in 384 well format. On the set-up: dose 125 nL, time 70.5 hour; concentration not given beside the values. In kind it is toxicity, cell-based. The note with it: HepG2 cells, read-out: Inhibition.

Consider `CCC(=O)N1CCC2(CC1)COc1ccccc1S(=O)(=O)N(C)C2`, for which the cytotoxicity at 70.5 h was -14.6%.
For the compound `Cc1ncsc1CN1C[C@@H](OCC2CC2)[C@H]2OCCC[C@H]21`, the cytotoxicity at 70.5 h was -5.13%.
As for `Cc1noc(C2CCC3(CCN(C(=O)C4=CCCCC4)CC3)O2)n1` (stereo not drawn), the cytotoxicity at 70.5 h was -6.87%.
In the case of `CCn1ncc2c1C(COC)CN(Cc1ccc(OC)cc1)C2` (stereo not drawn) it was -5.26%.
For `CCC(=O)N1CCC2(COCc3c(C)nc(N(C)C)nc32)C1` (stereo not drawn), the cytotoxicity at 70.5 h was 20.3%.
Consider `CCOCc1ncn2c1CN(C(=O)Nc1cccc(C)c1)CC2`, for which the cytotoxicity at 70.5 h was -6.82%.
Turning to `Cc1ccc(N2CC[C@H](OCC3CC3)[C@@H]2Cc2cnn(C)c2)nn1`, the cytotoxicity at 70.5 h is 0.692%.
With `O=C(C1=CCCC1)N1C[C@H](Oc2cccnc2)[C@H]2OCCC[C@H]21`, the cytotoxicity at 70.5 h is -4.92%.
Turning to `O=C(c1ccnnc1)N1C[C@H](Oc2cccnc2)[C@H]2OCCC[C@H]21`, the cytotoxicity at 70.5 h came to 3.85%.
Regarding `O=C(c1ccc[nH]1)N1C[C@H](OCc2cccnc2)[C@H]2COC[C@H]21`, the cytotoxicity at 70.5 h came to 5.01%.
For `Cc1cccc(CN2CC3(CCNCC3)OCC2=O)n1`, the cytotoxicity at 70.5 h was 0.469%.
Turning to `CN(C)c1ncc(-c2cc(C(=O)O)n(CC3CC3)c2)cn1`, the cytotoxicity at 70.5 h is -4.19%.
On to `CC(C)(C)CC(=O)N1CC[C@@H]2[C@H](CC1)N(S(C)(=O)=O)CCS2(=O)=O`, for which the cytotoxicity at 70.5 h was -5.98%.
For `CS(=O)(=O)N1Cc2nccn2CC(Cn2ncccc2=O)C1` (stereo not drawn), the cytotoxicity at 70.5 h came out at 3.97%.
Take `O=C(c1ccccn1)N1Cc2nccn2CC(COc2cccnc2)C1` (stereo not drawn): the cytotoxicity at 70.5 h came out at 22.8%.
For `CC1c2ncc(Cn3cncn3)n2CCN1C(=O)C1CCOCC1` (stereo not drawn), the cytotoxicity at 70.5 h was -2.59%.
For `COCC(=O)N1CC[C@H]2C[C@@H](c3nnc(C4CC4)o3)O[C@@H]2C1` the value was 5.55%.
Regarding `CN(Cc1ccccn1)C1COC2(CCN(Cc3nccs3)CC2)C1` (stereo not drawn), the cytotoxicity at 70.5 h was 15.3%.
In the case of `Cn1cccc1C(=O)N1CCN(CC2CC2)c2ncccc2C1`, the cytotoxicity at 70.5 h stood at 2.74%.
Take `Cn1cccc1C(=O)N1CCc2ncc(Cn3cccn3)n2CC1`: the cytotoxicity at 70.5 h worked out at 16.9%.
For the compound `CCNC(=O)c1nc2c(s1)CCCN2S(C)(=O)=O`, the cytotoxicity at 70.5 h was 28.7%.
For `FC(F)(F)c1cc(N2CCc3ncnc(NC4CC4)c3CC2)ncn1` the value was 5.67%; for `CN(C)CC(=O)N1CCOCC2(C1)CN(c1ccccc1)C(=O)CO2` (stereo not drawn), -45.3%.
For `Cc1nc(CN2C[C@@H]3OCCN(c4ncc(F)cn4)[C@@H]3C2)cs1` the value was -11.3%; for `COCCN1CCN(C(=O)C2CC=CC2)Cc2cccnc21`, -12%; for `COCCN1C(=O)[C@]2(CC[C@@H]3CN(C(=O)NC4CCCC4)C[C@@H]32)N=C1C`, -14.1%.
As to `CN1CCC(c2cnc(NCc3nccn3C)cn2)CC1`, the cytotoxicity at 70.5 h was found to be 17.9%.
As for `CCCn1nccc1-c1nccnc1CC1CCN(C(C)=O)C1` (stereo not drawn), the cytotoxicity at 70.5 h was -2.05%.
As for `Cc1nc(-c2ccc(CNS(=O)(=O)N(C)C)cc2)ccc1C(N)=O`, the cytotoxicity at 70.5 h is -2.19%.
In the case of `CC(C)C(=O)N1CCC(c2c(C(N)=O)sc3ccccc23)C1` (stereo not drawn) it was 18.5%.
On to `COCC(=O)N1CCCC(c2nc(N)ncc2-c2cccc(F)c2)C1` (stereo not drawn), for which the cytotoxicity at 70.5 h came out at 2.19%.
`CN(C)S(=O)(=O)N1CCC(c2ccnc(Nc3ccccn3)n2)C1` (stereo not drawn): the cytotoxicity at 70.5 h was -0.703%.
For `CN(C)c1cc(C2CCCN(C(=O)c3noc4c3CCCC4)C2)ccn1` (stereo not drawn), the cytotoxicity at 70.5 h was -1.31%.
For `O=C(c1noc2c1CCCC2)N1CCCC(c2nccs2)C1` (stereo not drawn) the value was -3.76%; for `Cc1cc(C)n(-c2nc(C(=O)NCCS(=O)(=O)N3CCCCC3)cs2)n1`, -2.01%.
Take `O=C(NCC1CCOCC1)c1cc(-c2ccncc2)c2cnccc2n1`: the cytotoxicity at 70.5 h was -2.01%.
Regarding `CC(=O)Nc1ccc(CCC2(NC(=O)C3CCCO3)CCCCC2)cn1` (stereo not drawn), the cytotoxicity at 70.5 h was -0.834%.
In the case of `Cc1nc(C(=O)N2CCC(c3cc(CCO)n(C)n3)C2)co1` (stereo not drawn) it was 16.6%; in that of `COCC(=O)N1CCCC(c2nc(N(C)C)ncc2-c2ccccc2)C1` (stereo not drawn), 4.41%; in that of `COCCC(=O)N1CCC(c2ccc3c(NC(C)C)n[nH]c3n2)C1` (stereo not drawn), -6.39%.
Regarding `Cc1cc(Cc2ccccc2C)cc(C2CCCNC2)n1` (stereo not drawn), the cytotoxicity at 70.5 h is -4.93%.
As for `CCS(=O)(=O)N1C[C@@H](O)[C@H](Oc2cccc(F)c2)C1`, the cytotoxicity at 70.5 h is -9.71%.
Regarding `O=C(O)c1ccccc1-c1ccc(CN2CCOCC2)cn1`, the cytotoxicity at 70.5 h is -7.9%.
As to `Cc1cc(Cc2ccccc2)cc(C2CCCNC2)n1` (stereo not drawn), the cytotoxicity at 70.5 h is -5.23%.
`Cc1ncc(CN)c(-c2cn(C)c3ccccc23)n1`: the cytotoxicity at 70.5 h was -7.92%.
`O=C(O)c1ccccc1-c1ccc(CN2CCC(CO)CC2)cn1`: the cytotoxicity at 70.5 h was -9.48%.
In the case of `CNc1cc(C2CCN2c2ncccn2)nc(C)n1` (stereo not drawn) it was -6.05%; in that of `CNC(=O)C1(C)CN(c2nnc(C)c3ccccc23)CCO1` (stereo not drawn), -6.81%; in that of `CC(C)(C)OC(=O)N1CCn2c(nnc2C2CCCNC2)C1` (stereo not drawn), 6.76%.
As for `CC(=O)N1CCC(CCc2ccnc(Nc3ccccn3)c2)CC1`, the cytotoxicity at 70.5 h is 26.8%.
Turning to `Cn1cnc2ccc(NC(=O)CC3CCN(S(C)(=O)=O)CC3)cc21`, the cytotoxicity at 70.5 h was 12%.
`CCn1c(C)nc2cc(NC(=O)CC3CCN(S(C)(=O)=O)CC3)ccc21`: the cytotoxicity at 70.5 h is -18.6%.
Turning to `O=C(O)c1ccccc1-c1ccc(CNC(=O)C2CCOCC2)cc1`, the cytotoxicity at 70.5 h was -4.99%.
Regarding `Cc1n[nH]c(C)c1CC(=O)N1CCC(O)(CN2CCOCC2)C1` (stereo not drawn), the cytotoxicity at 70.5 h was -12.6%.
`CC(=O)N1CCCC(C(=O)c2cnn(-c3ccc(F)cc3)c2N)C1` (stereo not drawn): the cytotoxicity at 70.5 h was -2.75%.
Take `Cc1ccc(C(=O)N2CCc3c(CNS(C)(=O)=O)cncc3C2)o1`: the cytotoxicity at 70.5 h came out at 0.323%.
For `O=C(NCC1CCCO1)c1cc(-c2ccncc2)c2cnccc2n1` (stereo not drawn) the value was -8.71%; for `CNC[C@H]1CC[C@H](c2cc(CN(C)C(=O)c3cnccn3)n(C)n2)CC1`, -8.17%; for `COc1ccccc1Cc1cncc(N2CC(C(=O)O)C2)n1`, -13.5%.
As to `c1nnc(Nc2cncc(C3CCCN3)n2)s1` (stereo not drawn), the cytotoxicity at 70.5 h was -7.63%.
For `CCS(=O)(=O)N1CCc2c(CN(C)Cc3ccco3)cncc2C1` the value was -6.14%; for `CN(C)C(=O)COC[C@]12COC[C@H]1CN(CC1CCC1)C2`, -6.61%.
For the compound `O=C(c1ccoc1)N1CC[C@H]2OCC[C@@]2(COc2ncccc2F)C1`, the cytotoxicity at 70.5 h was -9.01%.
For `CCS(=O)(=O)N1C[C@H]2CN(Cc3cccnc3)C(=O)[C@H]2C1` the value was 16.7%; for `CC(C)CNC(=O)[C@H]1CCS(=O)(=O)[C@@H]2CN(Cc3cccc(Cl)c3)C[C@H]12`, 24.3%.
In the case of `c1nc2c(c(-c3ccsc3)n1)CCN(Cc1ccoc1)CC2`, the cytotoxicity at 70.5 h is 19.3%.
Turning to `CN(C)C(=O)[C@@H]1CCO[C@@H]2CCN(Cc3ccccc3)C[C@@H]21`, the cytotoxicity at 70.5 h is -3.08%.
As to `CC1c2ncc(Cn3cncn3)n2CCN1C1CCOCC1` (stereo not drawn), the cytotoxicity at 70.5 h is 2.73%.
With `N#Cc1ccc(C(=O)N2CCn3c(Cn4cccn4)cnc3C2)cc1`, the cytotoxicity at 70.5 h was 7.14%.
`O=C1CC(c2ccccc2)C2(CCN(CC3CC3)CC2)N1` (stereo not drawn): the cytotoxicity at 70.5 h is -5.14%.
For `O=C(NCc1ccco1)[C@H]1C[C@@H]2CCN(c3ccncn3)C[C@@H]2O1`, the cytotoxicity at 70.5 h was -5.88%.
In the case of `Fc1ccc(CN2CCO[C@H]3[C@H](OCC4CC4)CC[C@@H]32)cc1`, the cytotoxicity at 70.5 h was -4.72%.
`CCN1CCC2(CC1)CC(NC(=O)N(C)C)c1cc(C)ccc12` (stereo not drawn): the cytotoxicity at 70.5 h was determined as 1.47%.
Turning to `Cn1nccc1-c1ccc2nc(C3CCN(CCO)CC3)nn2c1`, the cytotoxicity at 70.5 h is -2.61%.
Regarding `O=C(N1CCCO1)[C@@]12CCO[C@@H]1CCN(C1CCCCC1)C2`, the cytotoxicity at 70.5 h came to 14%.
For `Cc1ccc(CN2C[C@@H]3COC[C@H](NS(C)(=O)=O)[C@@H]3C2)o1` the value was -12.4%.
As to `Cc1nc(N2CCOCC2)nc2c1CCN(Cc1cccnc1)CC2`, the cytotoxicity at 70.5 h was -17.8%.
In the case of `COCCN1C[C@@H](C)[C@@]2(COCCN(C(=O)c3cnc(C)cn3)C2)C1`, the cytotoxicity at 70.5 h was -5.26%.
In the case of `CC(=O)N1CCOCC2(CCN(Cc3ccc(C)s3)CC2)C1` it was -4.66%.
On to `Cc1ncnc2c1CCN(Cc1cccs1)CC2`, for which the cytotoxicity at 70.5 h turned out to be 22.9%.
On to `O=C(NC1CC1)[C@H]1C[C@H]2OCC[C@H]2N(CC2CC2)C1`, for which the cytotoxicity at 70.5 h is 13.9%.
Consider `Cn1cnc2c1C(COCC1CC1)CN(Cc1ccc3c(c1)OCO3)C2` (stereo not drawn), for which the cytotoxicity at 70.5 h came to 36.5%.
With `CN1[C@H](Cn2cncn2)C[C@@H]2CN(Cc3cccc(C#N)c3)CC[C@@H]21`, the cytotoxicity at 70.5 h was -6.46%.
On to `Cc1cccc(C(=O)N2C[C@@H]3OCCN(c4ncccn4)[C@@H]3C2)n1`, for which the cytotoxicity at 70.5 h amounted to 2.67%.
Consider `O=C1CC[C@@H]2[C@@H](CCN2Cc2ccncc2)N1c1ccccc1`, for which the cytotoxicity at 70.5 h is 4.02%.
Turning to `Cn1cccc1C(=O)N1CCN(Cc2ccncc2)c2ncccc2C1`, the cytotoxicity at 70.5 h is -7.79%.
For `Fc1ccc(CN2CCO[C@H]3[C@H](OCCN4CCCC4)CC[C@@H]32)cc1` the value was -5.14%; for `COCC1c2c(cnn2CC2CC2)CCN1Cc1cccs1` (stereo not drawn), -2.83%; for `Cn1cc(CN2CC[C@H]3CO[C@H](CNc4ncccn4)[C@H]3C2)cn1`, 20.3%.
Turning to `Cn1cc(CN2C[C@@H]3COC[C@]3(C(=O)NCc3ccccn3)C2)cn1`, the cytotoxicity at 70.5 h is -17.5%.
`COCc1cnc2n1CCN(Cc1cccnc1)C2C` (stereo not drawn): the cytotoxicity at 70.5 h was -17.6%.
Regarding `CO[C@H]1CCN(S(=O)(=O)c2cn(C)cn2)[C@H]1Cc1cccnc1`, the cytotoxicity at 70.5 h was -22.4%.
In the case of `CN(Cc1cccnc1)[C@@H]1CN(CC2CC2)[C@@H]2CCCO[C@H]12` it was -2.78%.

For the origin of these results see ChEMBL document CHEMBL3507680, “University of Dundee, Gates Library screen for HepG2 cell viability”.
